What was measured:
[1] = biological target: T1, human 5-HT2A (h5-HT2A) receptor (Homo sapiens, UniProt P28223); test: 5-HT2A receptor functional assay (calcium flux) of modified indole alkaloids digested with calf intestinal alkaline phosphatase; assay type: cell-based; conditions: after 2 hours with 100 units calf intestinal alkaline phosphatase, pH 7.9, 25° C.; compared to 5-HT
T1 construct: host or cells: Flp-In T-REx 293 cells
Procedure: 1 mM of 4-3-(2-(dipropylamino)ethyl)-1H-indol-4-yl dihydrogen phosphate (Compound A) was incubated with 100 units of calf intestinal alkaline phosphatase for 2 hours in buffer containing 50 mM Potassium acetate, 20 mM Tris-acetate, 10 mM Magnesium acetate, and 100 μg/ml BSA at pH 7.9 and 25° C. 1 mM of 4-3-(2-(diisopropylamino)ethyl)-1H-indol-4-yl dihydrogen phosphate (Compound B) was incubated with 100 units of calf intestinal alkaline phosphatase for 2 hours in buffer containing 50 mM Potassium acetate, 20 mM Tris-acetate, 10 mM Magnesium acetate, and 100 μg/ml BSA at pH 7.9 and 25° C. The resulting solutions containing dephosphorylated products were used in a 5-HT2A receptor functional assay. […]
Before the experiment, plates were allowed to equilibrate to room temperature, and calcium flux was measured using a […] cellular screening system (Molecular Devices, Sunnyvale, CA). Plates were read for fluorescence initially for 10 s (1 read per second) to establish a baseline and then stimulated with drug dilutions or buffer and read for an additional 120 s. Peak fluorescence in each well was normalized to the maximum fold increase over baseline. […] Data were analyzed using the sigmoidal dose-response function of Prism 5.0 or 8.0 (GraphPad Software, San Diego, CA). Relative activity (RA) was expressed as the logarithm of the ratio of Emax over EC50 parameter estimates. […]

[2] = biological target: T1, human 5-HT2A (h5-HT2A) receptor; test: 5-HT2A receptor functional assay (Gq-mediated calcium flux) of saliva-hydrolyzed modified indole alkaloids; assay type: cell-based; conditions: 5HT2A agonist activity, compounds hydrolyzed by treatment with human saliva; for EC50: Flp-In T-REx 293 cells expressing h5-HT2A, peak calcium flux; for Emax % 5-HT (± SEM): normalized to 5-HT (100%)
[3] = biological target: T2, human 5-HT2C (h5-HT2C) receptor (Homo sapiens, UniProt P28335); test: 5-HT2C receptor functional assay (Gq-mediated calcium flux) of saliva-hydrolyzed modified indole alkaloids; assay type: cell-based; conditions: 5HT2C agonist activity, compounds hydrolyzed by treatment with human saliva; for EC50: Flp-In T-REx 293 cells expressing h5-HT2C, peak calcium flux; for Emax % 5-HT (± SEM): normalized to 5-HT (100%)
T2 construct: host or cells: Flp-In T-REx 293 cells
T2 sequence (P28335 33-458): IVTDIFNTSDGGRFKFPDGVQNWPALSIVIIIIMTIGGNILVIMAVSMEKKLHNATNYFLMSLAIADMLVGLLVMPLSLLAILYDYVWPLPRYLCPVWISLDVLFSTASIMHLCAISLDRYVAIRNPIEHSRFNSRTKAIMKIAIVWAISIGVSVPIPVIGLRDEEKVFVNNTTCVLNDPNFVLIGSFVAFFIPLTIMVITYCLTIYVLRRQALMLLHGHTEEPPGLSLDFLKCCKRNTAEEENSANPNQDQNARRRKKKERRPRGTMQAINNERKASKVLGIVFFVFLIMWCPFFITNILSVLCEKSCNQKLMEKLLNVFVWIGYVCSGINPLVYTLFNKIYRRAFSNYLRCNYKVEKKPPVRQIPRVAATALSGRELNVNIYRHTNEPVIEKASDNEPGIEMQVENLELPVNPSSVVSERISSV

[4] = Digestion of modified indole alkaloids with human salivary samples (LC-MS); assay type: in vitro ADME; conditions: 100 μM compound, 50 μL human saliva, 2 hours at 37° C., pH 7.5
Procedure: Human saliva samples were collected 25 minutes before food intake after 8 hours fasting from an adult subject with no clinical symptoms. For saliva collection, saliva samples were obtained by passive drool into sterile 10 mL centrifuge tubes over a 5-min period. Immediately after collection, saliva samples were centrifuged (500 g for 10 min at 4° C.) and the supernatant was recovered and used immediately or stored at −80° C. until further use.
Eleven 100-μL reaction mixtures were prepared, consisting of: • 50 mM HEPES pH 7.5 • 50 mM NaCl • 100 μM modified indole alkaloid product (from Reactions 3, 24, 39-47, respectively) • 50 μL, of human saliva sample • 2 mM calcium chloride • 5 mM magnesium chloride
The reaction mixtures were digested for 2 hours at 37° C., and heated to 80° C. for 5 minutes to terminate the reactions. The reaction mixtures were then centrifuged at 30,000 ref and the supernatant transferred to a fresh sample tube.
One microliter of the sample was injected onto a ZORBAX StableBond-C18, 1.8 um, 2.1×50 mm column at 20° C. using a 0.3 mL/min flow rate and major ion species were detected with a 6520 Accurate-Mass Q-TOF LC-MS (Agilent) in positive mode. The mobile phase consisted of a mixture of 0.1% formic acid in acetonitrile (v/v) and 0.1% formic acid in water (v/v) was eluted under the following gradient conditions (shown in relation to acetonitrile content): 0 min-10%, 6 min-100%, 7 min-10%, 14 min-10%. The mobile phase was delivered at a flow rate of 0.3 mL/min and the total analytical run time was 14 min.

T1 sequence (P28223 whole entry): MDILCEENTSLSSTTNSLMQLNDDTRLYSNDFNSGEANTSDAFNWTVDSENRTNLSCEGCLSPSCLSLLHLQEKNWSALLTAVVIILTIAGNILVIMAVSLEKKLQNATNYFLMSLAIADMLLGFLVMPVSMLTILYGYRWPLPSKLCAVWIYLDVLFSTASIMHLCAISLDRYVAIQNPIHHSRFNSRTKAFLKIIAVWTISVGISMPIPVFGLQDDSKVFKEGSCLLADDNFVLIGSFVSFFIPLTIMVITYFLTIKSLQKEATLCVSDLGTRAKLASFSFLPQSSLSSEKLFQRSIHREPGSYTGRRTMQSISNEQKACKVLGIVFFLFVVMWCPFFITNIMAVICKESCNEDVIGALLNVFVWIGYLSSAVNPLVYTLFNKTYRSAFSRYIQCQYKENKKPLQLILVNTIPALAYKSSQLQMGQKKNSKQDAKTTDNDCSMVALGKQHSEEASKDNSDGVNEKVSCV

SMILES	functional agonism of 5HT2A receptor, peak calcium flux response (FIG. 5) [1] [HT2A agonism]	EC50 [2] [nM]	Emax % 5-HT (± SEM) [2] [% 5-HT]	EC50 [3] [nM]	Emax % 5-HT (± SEM) [3] [% 5-HT]	conversion by human saliva to 4-hydroxy-N,N-diisopropyltryptamine (LC-MS) [4]
CC(C)N(CCc1c[nH]c2cccc(OP(=O)(O)O)c12)C(C)C [Compound B, 4-3-(2-(diisopropylamino)ethyl)-1H-indol-4-yl dihydrogen phosphate]	5					
CCCN(C)CCc1c[nH]c2cccc(O[C@H]3O[C@H](CO)[C@@H](O)[C@H](O)[C@H]3O)c12 (stereo in doubt) [Hydrolyzed Compound A-2, 2-(hydroxymethyl)-6-((3-(2-(methyl(propyl)amino)ethyl)-1H-indol-4-yl)oxy)tetrahydro-2H-pyran-3,4,5-triol]		3.83	98.0 ± 1.1	47.8	90.7 ± 1.5	
CCCN(CC)CCc1c[nH]c2cccc(O[C@H]3O[C@H](CO)[C@@H](O)[C@H](O)[C@H]3O)c12 [Hydrolyzed Compound A-5, 2-((3-(2-(ethyl(propyl)amino)ethyl)-1H1-indol-4-yl)oxy)-6-(hydroxymethyl)tetrahydro-2H-pyran-3,4,5-triol]		3.16	99.4 ± 1.2	117	89.4 ± 2.6	
CCN(C)CCc1c[nH]c2cccc(O[C@H]3O[C@H](CO)[C@@H](O)[C@H](O)[C@H]3O)c12 (stereo in doubt) [Hydrolyzed Compound A-1, 2-((3-(2-(ethyl(methyl)amino)ethyl)-1H-indol-4-yl)oxy)-6-(hydroxymethyl)tetrahydro-2H-pyran-3,4,5-triol]		4.01	96.7 ± 1.1	30.1	89.9 ± 2.1	
CN(CCc1c[nH]c2cccc(O[C@H]3O[C@H](CO)[C@@H](O)[C@H](O)[C@H]3O)c12)C1CC1 (stereo in doubt) [Hydrolyzed Compound A-9, 2-((3-(2-(cyclopropyl(methyl)amino)ethyl)-1H-indol-4-yl)oxy)-6-(hydroxymethyl)tetrahydro-2H-pyran-3,4,5-triol]		5.1	99.4 ± 2.0	149	79.1 ± 6.1	
CCCN(CCC)CCc1c[nH]c2cccc(O[C@H]3O[C@H](CO)[C@@H](O)[C@H](O)[C@H]3O)c12 (stereo in doubt) [Hydrolyzed Compound A-6, 2-((3-(2-(dipropylamino)ethyl)-1H-indol-4-yl)oxy)-6-(hydroxymethyl)tetrahydro-2H-pyran-3,4,5-triol]		1.65	103.2 ± 1.0	214	84.2 ± 1.0	
CC(=O)CC(=O)Oc1cccc2[nH]cc(CCN(C(C)C)C(C)C)c12 [Compound E, 3-(2-(diisopropylamino)ethyl)-1H-indol-4-yl 3-oxobutanoate]						completely hydrolyzed
CC(C)N(CCc1c[nH]c2cccc(O[C@H]3O[C@H](CO)[C@@H](O)[C@H](O)[C@H]3O)c12)C(C)C (stereo in doubt) [Hydrolyzed Compound A-7, 2-((3-(2-(diisopropylamino)ethyl)-1H-indol-4-yl)oxy)-6-(hydroxymethyl)tetrahydro-2H-pyran-3,4,5-triol]		6.81	103 ± 1.2	1550	94.4 ± 1.2	
CC(C)N(CCc1c[nH]c2cccc(O[C@H]3O[C@H](CO)[C@@H](O)[C@H](O)[C@H]3O)c12)C(C)C [Hydrolyzed Compound A-7, 2-((3-(2-(diisopropylamino)ethyl)-1H-indol-4-yl)oxy)-6-(hydroxymethyl)tetrahydro-2H-pyran-3,4,5-triol]						completely deglycosylated
CC(C)N(CCc1c[nH]c2cccc(OC(=O)CC(=O)O)c12)C(C)C [Compound D, 3-((3-(2-(diisopropylamino)ethyl)-1H-indol-4-yl)oxy)-3-oxopropanoic acid]						completely hydrolyzed
C=CCN(C)CCc1c[nH]c2cccc(O[C@H]3O[C@H](CO)[C@@H](O)[C@H](O)[C@H]3O)c12 (stereo in doubt) [Hydrolyzed Compound A-8, 2-((3-(2-(allyl(methyl)amino)ethyl)-1H-indol-4-yl)oxy)-6-(hydroxymethyl)tetrahydro-2H-pyran-3,4,5-triol]		3.66	102 ± 1.0	49.2	81.5 ± 2.4	
CCN(CC)CCc1c[nH]c2cccc(O[C@H]3O[C@H](CO)[C@@H](O)[C@H](O)[C@H]3O)c12 (stereo in doubt) [Hydrolyzed Compound A-4, 2-((3-(2-(diethylamino)ethyl)-1H-indol-4-yl)oxy)-6-(hydroxymethyl)tetrahydro-2H-pyran-3,4,5-triol]		6.48	100.1 ± 1.1	258	80.1 ± 1.9	
CCCN(CCC)CCc1c[nH]c2cccc(OP(=O)(O)O)c12 [Compound A, 4-3-(2-(dipropylamino)ethyl)-1H-indol-4-yl dihydrogen phosphate]	5					
